Results reported in patent US10703733B2, “MCL-1 inhibitors” (Gilead Sciences, Inc., priority 2018, dated 2020).
Like-named read-outs stand apart in the source and are kept apart here.

Columns and labels:
[1] = target: MCL-1/Bim interaction (recombinant human MCL-1 protein, residues 171-327; biotinylated human Bim peptide, residues 51-76) (Homo sapiens (Human), UniProt Q07820); experiment: MCL-1/Bim Binding AlphaLISA Assay; conditions: 0.0625 nM 6xHis-Mcl-1 (171-327), 0.0625 nM biotinylated-Bim peptide
Method in brief: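 AlphaLISA with 0.0625 nM His-tagged MCL-1 and 0.0625 nM biotin-Bim peptide in 20 mM Hepes pH 7.5, 150 mM NaCl, 0.002% Brij 35, 1 mM DTT, 0.01% BSA. Compound preincubated 1 h with MCL-1, Bim added for 2 h, then acceptor and donor beads 1 h each.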

SKBR3 cells = experiment: SKBR3 Cell Viability Assay (CellTiter Glo); assay type: cell-based; conditions: CellTiter Glo luminescence, read-out: MCL-1 CV SKBR3 EC50
Method in brief: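 SKBR3 cells (6,000/well) in McCoy 5A + 10% FBS exposed to serially diluted compound for 72 h at 37° C., 5% CO2. Viability by CellTiter Glo luminescence; % inhibition normalized to DMSO (negative) and 10 μM puromycin (positive).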

MCL-1/Bim interaction (recombinant human MCL-1 protein, residues 171-327; biotinylated human Bim peptide, residues 51-76), sequence (Q07820 171-327): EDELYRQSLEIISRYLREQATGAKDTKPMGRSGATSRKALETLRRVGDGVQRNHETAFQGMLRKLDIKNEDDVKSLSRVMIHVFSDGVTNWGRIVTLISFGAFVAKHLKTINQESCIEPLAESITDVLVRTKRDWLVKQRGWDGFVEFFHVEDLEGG

Row | Compound | IC50 [1] | EC50 (SKBR3 cells; Homo sapiens, SK-BR-3, 72 h) | EC50 (SKBR3 cells; 72 hours)
1 | COC1CN(C2CN(C(=O)N[S@@]3(=O)=NC(=O)c4ccc5c(c4)N(C[C@@H]4CC[C@H]4[C@@H](OC)/C=C/C[C@H](C)C3)C[C@@]3(CCCc4cc(Cl)ccc43)CO5)C2)C1 [Example 286] | 0.037 nM | 65.1 nM | 
2 | CO[C@H]1/C=C/CCC[S@@](=O)(NC(=O)CCc2ccco2)=NC(=O)c2ccc3c(c2)N(C[C@@H]2CC[C@H]21)C[C@@]1(CCCc2cc(Cl)ccc21)CO3 [Example 88] | 1.5 nM | 2570 nM | 
3 | CO[C@H]1/C=C/CCC[S@@](=O)(NC(=O)CCn2ncc3ccccc32)=NC(=O)c2ccc3c(c2)N(C[C@@H]2CC[C@H]21)C[C@@]1(CCCc2cc(Cl)ccc21)CO3 [Example 52] | 0.9 nM | 1950 nM | 
4 | CO[C@H]1/C=C/C[C@H](C)C[S@@](=O)(NC(=O)NC2CC3(COC3)C2)=NC(=O)c2ccc3c(c2)N(C[C@@H]2CC[C@H]21)C[C@@]1(CCCc2cc(Cl)ccc21)CO3 [Example 217] | 0.065 nM | 83.2 nM | 
5 | COC1CCn2cc(C(=O)N[S@@]3(=O)=NC(=O)c4ccc5c(c4)N(C[C@@H]4CC[C@H]4[C@@H](OC)/C=C/C[C@H](C)C3)C[C@@]3(CCCc4cc(Cl)ccc43)CO5)nc2C1 (some centres unmarked) [Example 302] | 0.091 nM | 302 nM | 
6 | C[C@@H]1[C@@H](C)C/C=C/[C@H](O)[C@@H]2CC[C@H]2CN2C[C@@]3(CCCc4cc(Cl)ccc43)COc3ccc(cc32)C(=O)N=[S@]1(=O)NC(=O)c1cc2n(c1)C[C@H](CN1CCOCC1)OC2 [Example 327] | 0.051 nM | 28.6 nM | 
7 | CO[C@H]1/C=C/C[C@H](C)C[S@@](=O)(NC(=O)N[C@H]2C[C@@H]2C(F)(F)F)=NC(=O)c2ccc3c(c2)N(C[C@@H]2CC[C@H]21)C[C@@]1(CCCc2cc(Cl)ccc21)CO3 [Example 243] | 0.059 nM | 41.7 nM | 
8 | CO[C@H]1/C=C/C[C@H](C)C[S@@](=O)(NC(=O)[C@H]2C[C@@H](C(C)(C)O)C2)=NC(=O)c2ccc3c(c2)N(C[C@@H]2CC[C@H]21)C[C@@]1(CCCc2cc(Cl)ccc21)CO3 [Example 178] | 0.141 nM | 144 nM | 
9 | CO[C@H]1/C=C/C[C@H](C)C[S@@](=O)(NC(=O)N[C@@H]2C[C@@H]2C)=NC(=O)c2ccc3c(c2)N(C[C@@H]2CC[C@H]21)C[C@@]1(CCCc2cc(Cl)ccc21)CO3 [Example 162] | 0.18 nM | 136 nM | 
10 | COc1nn(C)cc1C(=O)NS1(=O)=NC(=O)c2ccc3c(c2)N(C[C@@H]2CC[C@H]2[C@@H](OC)/C=C/[C@H](OC(=O)CCc2ccccc2)[C@H](C)C1)C[C@@]1(CCCc2cc(Cl)ccc21)CO3 (single isomer, unassigned) [Example 378] | 1.15 nM |  | 1180 nM
11 | CO[C@H]1/C=C/C[C@H](C)C[S@@](=O)(NC(=O)c2cc3n(c2)C[C@@H](C)OC3)=NC(=O)c2ccc3c(c2)N(C[C@@H]2CC[C@H]21)C[C@@]1(CCCc2cc(Cl)ccc21)CO3 [Example 168] | 0.222 nM | 74.2 nM | 
12 | COC1CCN(C(=O)N[S@@]2(=O)=NC(=O)c3ccc4c(c3)N(C[C@@H]3CC[C@H]3[C@@H](OC)/C=C/C[C@H](C)C2)C[C@@]2(CCCc3cc(Cl)ccc32)CO4)CC1 [Example 320] | 0.035 nM | 36.6 nM | 
13 | CO[C@H]1/C=C/C[C@H](C)C[S@@](=O)(NC(=O)c2coc(C)c2)=NC(=O)c2ccc3c(c2)N(C[C@@H]2CC[C@H]21)C[C@@]1(CCCc2cc(Cl)ccc21)CO3 [Example 204] | 0.048 nM | 136 nM | 
14 | COc1nn(C)cc1C(=O)N[S@@]1(=O)=NC(=O)c2ccc3c(c2)N(C[C@@H]2CC[C@H]2[C@@H](OC)/C=C/[C@H](OC(=O)N(C)C)[C@H](C)C1C(=O)N(C)C)C[C@@]1(CCCc2cc(Cl)ccc21)CO3 (some centres unmarked) [Example 395] | 5.27 nM |  | 6180 nM
15 | CO[C@H]1/C=C/CCC[S@@](=O)(NC(=O)CC(C)C)=NC(=O)c2ccc3c(c2)N(C[C@@H]2CC[C@H]21)C[C@@]1(CCCc2cc(Cl)ccc21)CO3 [Example 26] | 1.8 nM | 1690 nM | 
16 | CO[C@H]1/C=C/C[C@H](C)C[S@@](=O)(NC(=O)c2cn(C)nc2C2CC2)=NC(=O)c2ccc3c(c2)N(C[C@@H]2CC[C@H]21)C[C@@]1(CCCc2cc(Cl)ccc21)CO3 [Example 164] | 0.141 nM | 106 nM | 
17 | CO[C@H]1/C=C/CCC[S@@](=O)(NC(=O)CCc2ncsc2C)=NC(=O)c2ccc3c(c2)N(C[C@@H]2CC[C@H]21)C[C@@]1(CCCc2cc(Cl)ccc21)CO3 [Example 101] | 1.4 nM | 2590 nM | 
18 | CO[C@H]1/C=C/C[C@H](C)C[S@@](=O)(NC(=O)N[C@@H]2C[C@H]2F)=NC(=O)c2ccc3c(c2)N(C[C@@H]2CC[C@H]21)C[C@@]1(CCCc2cc(Cl)ccc21)CO3 [Example 364] | 0.064 nM | 259 nM | 
19 | CO[C@H]1/C=C/CCC[S@@](=O)(NC(=O)C#CC(C)(C)C)=NC(=O)c2ccc3c(c2)N(C[C@@H]2CC[C@H]21)C[C@@]1(CCCc2cc(Cl)ccc21)CO3 [Example 36] | 8.1 nM | 10000 nM | 

Row | Compound | IC50 [1] | EC50 (SKBR3 cells; Homo sapiens, SK-BR-3, 72 h) | EC50 (SKBR3 cells; 72 hours)
20 | CO[C@H]1/C=C/C[C@H](C)C[S@@](=O)(NC(=O)[C@H]2C[C@@](C)(O)C2)=NC(=O)c2ccc3c(c2)N(C[C@@H]2CC[C@H]21)C[C@@]1(CCCc2cc(Cl)ccc21)CO3 [Example 165] | 0.035 nM | 45.5 nM | 
21 | COc1nn(C)cc1C(=O)N[S@@]1(=O)=NC(=O)c2ccc3c(c2)N(C[C@@H]2CC[C@H]2[C@H](O)/C=C/C[C@H](C)[C@H]1C)C[C@@]1(CCCc2cc(Cl)ccc21)CO3 [Example 353] | 0.103 nM | 257 nM | 
22 | COC1CN(C(=O)N[S@@]2(=O)=NC(=O)c3ccc4c(c3)N(C[C@@H]3CC[C@H]3[C@@H](OC)/C=C/C[C@H](C)C2)C[C@@]2(CCCc3cc(Cl)ccc32)CO4)C1 [Example 362] | 0.024 nM | 17.3 nM | 
23 | CO[C@H]1/C=C/C[C@H](C)C[S@@](=O)(NC(=O)c2cc3n(c2)CCN(S(C)(=O)=O)C3)=NC(=O)c2ccc3c(c2)N(C[C@@H]2CC[C@H]21)C[C@@]1(CCCc2cc(Cl)ccc21)CO3 [Example 455] | 0.147 nM | 146 nM | 
24 | CO[C@H]1/C=C/C[C@H](C)C[S@@](=O)(NC(=O)N2CC(OC)(c3nccn3C)C2)=NC(=O)c2ccc3c(c2)N(C[C@@H]2CC[C@H]21)C[C@@]1(CCCc2cc(Cl)ccc21)CO3 [Example 276] | 0.068 nM | 64.3 nM | 
25 | CC[C@@H]1CC/C=C/[C@H](OC)[C@@H]2CC[C@H]2CN2C[C@@]3(CCCc4cc(Cl)ccc43)COc3ccc(cc32)C(=O)N=S1(=O)NC(=O)CCc1ccnn1C (single isomer, unassigned) [Example 71] | 0.7 nM |  | 1390 nM
26 | CO[C@H]1/C=C/C[C@H](C)C[S@@](=O)(NC(=O)c2cc3n(c2)CCN(C(C)=O)C3)=NC(=O)c2ccc3c(c2)N(C[C@@H]2CC[C@H]21)C[C@@]1(CCCc2cc(Cl)ccc21)CO3 [Example 180] | 0.092 nM | 134 nM | 
27 | CO[C@H]1/C=C/CCC[S@@](=O)(NC(=O)CCc2cccnc2)=NC(=O)c2ccc3c(c2)N(C[C@@H]2CC[C@H]21)C[C@@]1(CCCc2cc(Cl)ccc21)CO3 [Example 40] | 0.1 nM | 328 nM | 
28 | COc1nn(C)cc1C(=O)N[S@@]1(=O)=NC(=O)c2ccc3c(c2)N(C[C@@H]2CC[C@H]2[C@@H](OC)CC[C@H](OC)[C@H](C)C1)C[C@@]1(CCCc2cc(Cl)ccc21)CO3 [Example 299] | 0.039 nM | 59.7 nM | 
29 | CO[C@H]1/C=C/C[C@H](C)C[S@@](=O)(NC(=O)c2cc3n(n2)CCOC3)=NC(=O)c2ccc3c(c2)N(C[C@@H]2CC[C@H]21)C[C@@]1(CCCc2cc(Cl)ccc21)CO3 [Example 424] | 0.037 nM | 147 nM | 
30 | CO[C@H]1/C=C/CCC[S@@](=O)(NC(=O)Cc2cn3ccccc3n2)=NC(=O)c2ccc3c(c2)N(C[C@@H]2CC[C@H]21)C[C@@]1(CCCc2cc(Cl)ccc21)CO3 [Example 86] | 1.8 nM | 4910 nM | 
31 | CO[C@H]1/C=C/CCC[S@@](=O)(NC(=O)CCn2cccn2)=NC(=O)c2ccc3c(c2)N(C[C@@H]2CC[C@H]21)C[C@@]1(CCCc2cc(Cl)ccc21)CO3 [Example 39] | 0.1 nM | 262 nM | 
32 | CO[C@H]1/C=C/C[C@H](C)C[S@@](=O)(NC(=O)c2cnoc2)=NC(=O)c2ccc3c(c2)N(C[C@@H]2CC[C@H]21)C[C@@]1(CCCc2cc(Cl)ccc21)CO3 [Example 409] | 0.147 nM | 297 nM | 
33 | CCn1ccc(CCC(=O)N[S@@]2(=O)=NC(=O)c3ccc4c(c3)N(C[C@@H]3CC[C@H]3[C@@H](OC)/C=C/C[C@H](C)[C@H]2C)C[C@@]2(CCCc3cc(Cl)ccc32)CO4)n1 [Example 408] | 0.054 nM | 241 nM | 
34 | CO[C@H]1/C=C/C[C@H](C)C[S@@](=O)(NC(=O)Nc2ncccn2)=NC(=O)c2ccc3c(c2)N(C[C@@H]2CC[C@H]21)C[C@@]1(CCCc2cc(Cl)ccc21)CO3 [Example 111] | 0.093 nM | 721 nM | 
35 | CO[C@H]1/C=C/C[C@H](C)C[S@@](=O)(NC(=O)NC23CC(OC)(C2)C3)=NC(=O)c2ccc3c(c2)N(C[C@@H]2CC[C@H]21)C[C@@]1(CCCc2cc(Cl)ccc21)CO3 [Example 361] | 0.055 nM | 44 nM | 
36 | COCC1(NC(=O)N[S@@]2(=O)=NC(=O)c3ccc4c(c3)N(C[C@@H]3CC[C@H]3[C@@H](OC)/C=C/C[C@H](C)C2)C[C@@]2(CCCc3cc(Cl)ccc32)CO4)CC1 [Example 131] | 0.046 nM | 162 nM | 
37 | CO[C@H]1/C=C/C[C@H](C)C[S@@](=O)(NC(=O)N2CC(C#N)C2)=NC(=O)c2ccc3c(c2)N(C[C@@H]2CC[C@H]21)C[C@@]1(CCCc2cc(Cl)ccc21)CO3 [Example 233] | 0.016 nM | 47.2 nM | 
